Test results reported in paper PMC11954145, “Antimicrobial and ADME properties of methoxylated, methylated and nitrated 2-hydroxynaphthalene-1 carboxanilides” (ADMET & DMPK, 2025).
≈ marks a conversion by molar mass, not a printed value. Where two headings read alike, the source gives them in different places.

What was measured:
[1] = system: Mycobacterium kansasii DSM 44162; set-up: method as in PMID 23924993; conditions: previously published monosubstituted derivatives; cited from earlier work
[2] = Lipophilicity determination by RP-HPLC (log k, log D); assay type: physicochemical; conditions: for log D6.5: RP-HPLC C18, MeOH 72 % / acetate-buffered saline pH 6.5; for log D7.4: RP-HPLC C18, MeOH 72 % / acetate-buffered saline pH 7.4; for log k (logarithm of the capacity factor): RP-HPLC C18, MeOH 72 % / water 28 %
How it was run: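 Isocratic RP-HPLC on a C18 column at 40 °C, UV detection at 210 nm, dead time from KI. Log k used MeOH/H2O 72:28, log D used MeOH/acetate-buffered saline (pH 7.4 or 6.5) 72:28. k and D were calculated as (tR–tD)/tD, three replicates.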

S. aureus ATCC 29213 = assay: Antibacterial screening, broth microdilution MIC; assay type: cell-based; conditions: Staphylococcus aureus, ATCC29213; ATCC 29213, 24 h at 37 °C; read-out: MIC S. aureus
MRSA 63718 [3] = assay: Antibacterial screening, broth microdilution MIC; assay type: cell-based, methicillin-resistant S. aureus; conditions: Staphylococcus aureus, clinical isolate, 24 h at 37 °C, read-out: MIC MRSA 63718
MRSA SA 3202 = assay: Antibacterial screening, broth microdilution MIC; assay type: cell-based, methicillin-resistant S. aureus; conditions: Staphylococcus aureus, clinical isolate, 24 h at 37 °C, read-out: MIC MRSA SA 3202
[4] = system: Enterococcus faecalis ATCC 29212; assay: Antibacterial screening, broth microdilution MIC; assay type: cell-based; conditions: ATCC29212, ATCC 29212, 24 h at 37 °C, read-out: MIC E. faecalis
VRE 342B = assay: Antibacterial screening, broth microdilution MIC; assay type: cell-based, vancomycin-resistant E. faecalis; conditions: Enterococcus, vanA isolate, 24 h at 37 °C, read-out: MIC VRE 342B
VRE 725B = assay: Antibacterial screening, broth microdilution MIC; assay type: cell-based, vancomycin-resistant E. faecalis; conditions: Enterococcus, vanA isolate, 24 h at 37 °C, read-out: MIC VRE 725B
VRE 368 = assay: Antibacterial screening, broth microdilution MIC; assay type: cell-based, vancomycin-resistant E. faecalis; conditions: Enterococcus, vanA isolate, 24 h at 37 °C, read-out: MIC VRE 368
E. coli ATCC 25922 = assay: Antibacterial screening, broth microdilution MIC; assay type: cell-based; conditions: Escherichia coli, ATCC25922; ATCC 25922, 24 h at 37 °C
[5] = system: Mycobacterium tuberculosis ATCC 25177/H37Ra; assay: Antimycobacterial screening, broth dilution MIC (Alamar blue); assay type: cell-based; conditions: 336 h, H37Ra, 14 days at 37 °C, Alamar blue, read-out: MIC M. tuberculosis
How it was run: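 Broth microdilution in Middlebrook 7H9 with ADC, compounds twofold from 256 to 0.125 μg mL^-1, 1.5×10^6 M. tuberculosis cells per well, 14 days at 37 °C. Alamar blue was then added for 24 h. MIC is the lowest concentration preventing blue resazurin turning pink resorufin; three repeats.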

[6] = system: Mycobacterium kansasii DSM 44162; assay: Antimycobacterial screening, broth dilution MIC; assay type: cell-based; conditions: DSM44162, 336 h, read-out: MIC M. kansasii
[7] = system: Mycobacterium smegmatis ATCC 700084; assay: Antimycobacterial screening, broth dilution MIC; assay type: cell-based; conditions: Mycolicibacterium smegmatis, ATCC700084, 72 h; ATCC 700084, 3 days at 37 °C; read-out: MIC M. smegmatis
[8] = system: human monocytic leukemia THP-1 cells; conditions: cited from earlier work
MRSA SA 630 = assay: Antibacterial screening, broth microdilution MIC; assay type: cell-based, methicillin-resistant S. aureus; conditions: Staphylococcus aureus, clinical isolate, 24 h at 37 °C, read-out: MIC MRSA SA 630
MRSA 63718 [9] = system: MRSA 63718; set-up: method as in PMID 25692135; conditions: cited from earlier work

**Q.** For `O=C(Nc1ccc(C(F)(F)F)cc1)c1c(O)ccc2ccccc12` [2-hydroxy-N-(4-trifluoromethylphenyl)naphthalene-1-carboxamide], which “MIC M. kansasii” value [1] is on record?
**A.** 23 µM (≈ 7.62 µg/mL)

**Q.** With `O=C(Nc1ccccc1[N+](=O)[O-])c1c(O)ccc2ccccc12` [Compound 24, 2-hydroxy-N-(2-nitrophenyl)naphthalene-1-carboxamide] as the compound, how does the “log D6.5” value [2] read?
**A.** 0.3077

**Q.** And the “log D7.4” value [2]?
**A.** 0.3103

**Q.** And the “log k (logarithm of the capacity factor)” value [2]?
**A.** 0.3033

**Q.** What about the MIC (S. aureus ATCC 29213) of the same compound?
**A.** 26 µM (≈ 8.02 µg/mL)

**Q.** What about the MIC (MRSA 63718 [3]) of the same compound?
**A.** 415 µM (≈ 128 µg/mL)

**Q.** And the MIC (MRSA SA 3202)?
**A.** 51.9 µM (≈ 16 µg/mL)

**Q.** What about the MIC [4] of the same compound?
**A.** 830 µM (≈ 256 µg/mL)

**Q.** And the MIC (VRE 342B)?
**A.** 830 µM (≈ 256 µg/mL)

**Q.** What about the MIC (VRE 725B) of the same compound?
**A.** 830 µM (≈ 256 µg/mL)

**Q.** What about the MIC (VRE 368) of the same compound?
**A.** 830 µM (≈ 256 µg/mL)

**Q.** And the MIC (E. coli ATCC 25922)?
**A.** 830 µM (≈ 256 µg/mL)

**Q.** What about the MIC [5] of the same compound?
**A.** 104 µM (≈ 32.1 µg/mL)

**Q.** What about the MIC ([6]; DSM 44162, 14 days at 37 °C) of the same compound?
**A.** 51.9 µM (≈ 16 µg/mL)

**Q.** What about the MIC [7] of the same compound?
**A.** 208 µM (≈ 64.1 µg/mL)

**Q.** What about the CC50 [8] of the same compound?
**A.** > 20 µM

**Q.** With `O=C(Nc1cccc([N+](=O)[O-])c1)c1c(O)ccc2ccccc12` [Compound 25, 2-hydroxy-N-(3-nitrophenyl)naphthalene-1-carboxamide] as the compound, how does the “log D6.5” value [2] read?
**A.** 0.3462

**Q.** And the “log D7.4” value [2]?
**A.** 0.3058

**Q.** What about the “log k (logarithm of the capacity factor)” value [2] of the same compound?
**A.** 0.4882

**Q.** And the MIC (S. aureus ATCC 29213)?
**A.** 208 µM (≈ 64.1 µg/mL)

**Q.** What about the MIC (MRSA 63718 [3]) of the same compound?
**A.** 26 µM (≈ 8.02 µg/mL)

**Q.** What about the MIC (MRSA SA 630) of the same compound?
**A.** 208 µM (≈ 64.1 µg/mL)

**Q.** What about the MIC (MRSA SA 3202) of the same compound?
**A.** 208 µM (≈ 64.1 µg/mL)

**Q.** What about the MIC [4] of the same compound?
**A.** 830 µM (≈ 256 µg/mL)

**Q.** And the MIC (VRE 342B)?
**A.** 830 µM (≈ 256 µg/mL)

**Q.** What about the MIC (VRE 725B) of the same compound?
**A.** 830 µM (≈ 256 µg/mL)

**Q.** And the MIC (VRE 368)?
**A.** 830 µM (≈ 256 µg/mL)

**Q.** And the MIC (E. coli ATCC 25922)?
**A.** 830 µM (≈ 256 µg/mL)

**Q.** What about the MIC [5] of the same compound?
**A.** 104 µM (≈ 32.1 µg/mL)

**Q.** What about the MIC [6] of the same compound?
**A.** 104 µM (≈ 32.1 µg/mL)

**Q.** What about the MIC [7] of the same compound?
**A.** 208 µM (≈ 64.1 µg/mL)

**Q.** And the CC50 [8]?
**A.** > 20 µM

**Q.** What does the source list for `O=C(Nc1ccc([N+](=O)[O-])cc1)c1c(O)ccc2ccccc12` [Compound 26, 2-hydroxy-N-(4-nitrophenyl)naphthalene-1-carboxamide]?
**A.** log D6.5 [2]: 0.0862; log D7.4 [2]: 0.0879; log k (logarithm of the capacity factor) [2]: 0.0984; MIC (S. aureus ATCC 29213): > 830 µM; MIC (MRSA 63718 [3]): 830 µM (≈ 256 µg/mL); MIC (MRSA SA 630): 415 µM (≈ 128 µg/mL); MIC [4]: 415 µM (≈ 128 µg/mL); MIC (VRE 342B): 830 µM (≈ 256 µg/mL); MIC (VRE 725B): 830 µM (≈ 256 µg/mL); MIC (VRE 368): 830 µM (≈ 256 µg/mL); MIC (E. coli ATCC 25922): 830 µM (≈ 256 µg/mL); MIC [5]: 104 µM (≈ 32.1 µg/mL); MIC ([6]; DSM 44162, 14 days at 37 °C): 415 µM (≈ 128 µg/mL); MIC [7]: 208 µM (≈ 64.1 µg/mL); CC50 [8]: 2.5 ± 0.1 µM

**Q.** For `O=C(Nc1ccc(Br)cc1)c1c(O)ccc2ccccc12` [N-(4-bromophenyl)-2-hydroxynaphthalene-1-carboxamide], which “MIC M. kansasii” value [1] is on record?
**A.** 93 µM (≈ 31.8 µg/mL)

**Q.** Which MIC of vancomycin (MRSA 63718 [9]) does the source give for `CN[C@H](CC(C)C)C(=O)N[C@H]1C(=O)N[C@@H](CC(N)=O)C(=O)N[C@H]2C(=O)N[C@H]3C(=O)N[C@H](C(=O)N[C@H](C(=O)O)c4cc(O)cc(O)c4-c4cc3ccc4O)[C@H](O)c3ccc(c(Cl)c3)Oc3cc2cc(c3O[C@@H]2O[C@H](CO)[C@@H](O)[C@H](O)[C@H]2O[C@H]2C[C@](C)(N)[C@H](O)[C@H](C)O2)Oc2ccc(cc2Cl)[C@H]1O` [vancomycin] here?
**A.** 2 µg/mL
